Data on eleven compounds can be found in ChEMBL document CHEMBL1126348, “1,3,4-trisubstituted pyrrolidinones as scaffolds for construction of peptidomimetic cholecystokinin antagonists” (Bioorg Med Chem Lett, 1992).

For experiment [1], the target named is T1, Cholecystokinin receptor type A (Rattus norvegicus, UniProt P30551).
T1 sequence (P30551 whole entry): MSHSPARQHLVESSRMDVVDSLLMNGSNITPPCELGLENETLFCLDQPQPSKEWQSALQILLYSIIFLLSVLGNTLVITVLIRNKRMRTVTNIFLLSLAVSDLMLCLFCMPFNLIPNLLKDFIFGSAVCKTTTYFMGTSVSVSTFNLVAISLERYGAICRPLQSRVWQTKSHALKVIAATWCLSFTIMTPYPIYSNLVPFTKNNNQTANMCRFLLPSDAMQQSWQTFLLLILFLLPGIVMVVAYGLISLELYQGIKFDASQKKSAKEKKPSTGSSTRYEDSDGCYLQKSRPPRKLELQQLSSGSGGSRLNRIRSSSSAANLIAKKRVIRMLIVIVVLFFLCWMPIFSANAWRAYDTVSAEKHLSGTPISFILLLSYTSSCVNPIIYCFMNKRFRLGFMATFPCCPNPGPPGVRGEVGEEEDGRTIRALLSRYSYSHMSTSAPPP
The experiment can be described thus: Displacement of [125I]CCK-OP radioligand from Cholecystokinin type A receptor in rat pancreatic acinar membrane binding assay. The class given is cell membranes.

Experiment [2] addresses T2, Cholecystokinin receptor type A (Rattus norvegicus) (UniProt P30551).
T2 sequence (whole entry): T1 sequence (P30551 whole entry)
Briefly: Effective dose of compound causing reversal of cholecystokinin-8 (CCK-8) receptor induced delayed gastric emptying in the rat when administered intraperitoneally. The conditions noted are these: Stomach. The class given is functional.

Experiment [3] deals with T3, Cholecystokinin receptor type A (Cavia porcellus, UniProt Q63931).
T3 sequence (Q63931 whole entry): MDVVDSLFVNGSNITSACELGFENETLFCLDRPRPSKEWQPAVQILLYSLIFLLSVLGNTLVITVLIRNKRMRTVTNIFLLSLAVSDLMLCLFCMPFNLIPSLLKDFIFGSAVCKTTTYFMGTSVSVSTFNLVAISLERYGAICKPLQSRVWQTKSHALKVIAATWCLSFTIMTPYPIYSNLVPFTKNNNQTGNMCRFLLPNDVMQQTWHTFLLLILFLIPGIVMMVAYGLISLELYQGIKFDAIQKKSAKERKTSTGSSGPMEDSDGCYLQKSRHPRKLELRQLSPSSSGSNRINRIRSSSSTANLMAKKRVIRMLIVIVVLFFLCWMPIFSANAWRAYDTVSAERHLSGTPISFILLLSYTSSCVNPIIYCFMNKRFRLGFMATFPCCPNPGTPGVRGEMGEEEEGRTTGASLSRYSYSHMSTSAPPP
The experiment can be described thus: Compound was tested for competitive blocking of guinea pig ileal smooth muscle strip contraction to cholecystokinin-8 (CCK-8) receptor. The format is functional. The conditions noted are these: read-out: pA2 (converted).

Experiment [4] addresses T2, Cholecystokinin receptor type A (Rattus norvegicus). Briefly: Effective dose of compound causing reversal of cholecystokinin-8 (CCK-8) receptor induced delayed gastric emptying in the rat when administered orally. The format is functional. The conditions noted are these: Stomach.

Usually IC50 stands for the concentration that gives 50% inhibition. Read a high IC50 as weaker potency in that assay. In turn, `O=C(N[C@@H]1C(=O)N(Cc2ccccc2)C[C@@H]1C(=O)O)c1ccc2ccccc2c1` displayed a 50% inhibitory concentration (IC50) in experiment [1] of 1290 nM.

As to `O=C(O)[C@H]1CN(c2ccccc2)C(=O)[C@H]1NS(=O)(=O)c1ccc2ccccc2c1`, the IC50 in experiment [1] is above 1000 nM.

Compound `CCCCCN(CCCCC)C(=O)C(CCC(=O)O)NC(=O)c1ccc(Cl)c(Cl)c1` (centres undefined) [LORGLUMIDE] gave a half-maximal inhibitory concentration (IC50) in experiment [1] of 22 nM.

In experiment [1], `O=C(N[C@H]1C(=O)N(c2ccccc2)C[C@@H]1C(=O)O)c1ccc2ccccc2c1` came in with an IC50 of 290 nM.

In turn, `O=C(N[C@@H]1C(=O)N(c2ccccc2F)C[C@@H]1C(=O)O)c1cnc2ccccc2c1` yielded an IC50 in experiment [1] of 170 nM.

For the compound `O=C(N[C@@H]1C(=O)N(c2ccccc2F)C[C@@H]1C(=O)O)c1ccc2ccccc2c1`, in experiment [1], the IC50 came to 62 nM.

Take `O=C(N[C@@H]1C(=O)N(c2ccccc2)C[C@@H]1C(=O)O)c1cc2ccccc2[nH]1`: in experiment [1], the half-maximal inhibitory concentration (IC50) turned out to be 18.5 nM.

Turning to `CC(C)(C)OC(=O)[C@H]1CN(c2ccccc2)C(=O)[C@H]1NC(=O)c1ccc2ccccc2c1`, the IC50 in experiment [1] was above 1000 nM.

In experiment [1], `O=C(N[C@H]1C(=O)N(c2ccccc2)C[C@@H]1C(=O)O)c1cc2ccccc2[nH]1` came in with a 50% inhibitory concentration (IC50) of 360 nM.

Broadly, the ED50 is the dose at which the effect has come halfway, by size or by number of responders. Regarding `O=C(N[C@@H]1C(=O)N(c2ccccc2)C[C@@H]1C(=O)O)c1ccc2ccccc2c1`, the ED50 in experiment [2] came out at 0.41 mg/kg; in experiment [4], 1.8 mg/kg. In addition, the Kb in experiment [3] is 6.31 nM. The compound also displayed a half-inhibitory concentration (IC50) in experiment [1] of 16 nM.

The compound `O=C(N[C@@H]1C(=O)N(Cc2ccccc2)C[C@@H]1C(=O)O)c1cc2ccccc2[nH]1` came in with an IC50 in experiment [1] of 550 nM.
